In BindingDB's records for patent US11826435 (University of Saskatchewan, 2023):
pIC50, pKi: −log10 of the molar value.

Molecular target: T1, Lysosomal acid glucosylceramidase (Homo sapiens, UniProt P04062)
T1 sequence (P04062 whole entry): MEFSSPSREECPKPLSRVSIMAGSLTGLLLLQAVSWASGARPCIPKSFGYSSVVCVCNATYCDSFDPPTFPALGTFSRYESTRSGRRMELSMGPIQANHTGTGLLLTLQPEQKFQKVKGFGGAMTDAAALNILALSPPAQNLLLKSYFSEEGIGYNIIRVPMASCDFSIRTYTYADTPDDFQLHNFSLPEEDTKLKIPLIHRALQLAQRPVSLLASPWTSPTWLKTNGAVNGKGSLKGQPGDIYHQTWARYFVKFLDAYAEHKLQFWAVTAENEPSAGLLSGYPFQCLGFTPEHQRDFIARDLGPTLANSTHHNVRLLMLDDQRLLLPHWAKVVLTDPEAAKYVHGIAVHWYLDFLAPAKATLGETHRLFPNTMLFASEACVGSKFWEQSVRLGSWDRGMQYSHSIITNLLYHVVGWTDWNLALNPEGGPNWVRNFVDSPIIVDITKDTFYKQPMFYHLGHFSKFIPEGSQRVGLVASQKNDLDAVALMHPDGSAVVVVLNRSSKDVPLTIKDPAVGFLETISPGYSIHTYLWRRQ
Experiment: Enzyme Kinetics - Measuring Inactivation Rates of Inhibitors
Description: Inactivation solutions contained a final concentration of 16.55 nM of Cerezyme (Recombinant GCase) in 200 μL of Reaction Buffer (50 mM acetate, 0.2% v/v Triton X-100, 0.3% w/v sodium taurocholate, pH 5.5). The Cerezyme was collected from leftover patient vials and had approximately 8275 nM in the vial. […] Once the inhibitor was added this was considered time=0 minutes. Meanwhile a 96 well plate inside a Biotek Synergy 4 hybrid multi-mode reader at 37 C. was being incubated. In the wells of the plate were waiting a high concentration ([…]) of 2,4-DNP-β-Glc substrate in 180 μL of Reaction Buffer. As the inhibitor inactivation was occurring, 20 μL aliquots were taken from the inactivation solutions and diluted on the plate containing the substrate bringing the final concentration of the substrate to […]. Once all the aliquots were added the solution in the wells was measured for absorbance at 400 nm for 8 minutes. At this time the measurements were paused and the next set of aliquots were taken to see how residual enzyme activity changes over time.

| SMILES | pIC50 | pKi |
| --- | --- | --- |
| O=[N+]([O-])c1ccc(OC2O[C@H](CO)[C@@H](O)[C@H](O)[C@H]2F)c([N+](=O)[O-])c1 (some centres not stated) [US11826435, Compound 1.1] | < 3.00 | – |
| O[C@H]1[C@H](O)[C@@H](O)[C@@H]2O[C@@H]2[C@@H]1O [US11826435, Compound 1.2] | – | 3.85 |
